Data taken from patent US10829520B2, “Beta-hairpin peptidomimetics” (POLYPHOR AG, priority 2015, dated 2020).
Where a SMILES comes first, the peptide text is derived from it. Bridges are numbered along the chain shown (N, C = ends). Roman numbers before positions name the chains, in order. [ ]: non-standard residue; d: D form. Tle = CC(C)(C)[C@H](N)C(=O)O; dNle = CCCC[C@@H](N)C(=O)O; dDab = NCC[C@@H](N)C(=O)O; Nle = CCCC[C@H](N)C(=O)O; Orn = NCCC[C@H](N)C(=O)O; Dab = NCC[C@H](N)C(=O)O

Key:
Type in all cases: cell-based
[1] = tested on: human red blood cells (hRBC); experiment: Hemolysis of human red blood cells; settings: red cells of human, 1 h
Outline: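 Hemolysis was read as supernatant absorbance at 540 nm and expressed as a percentage of Triton X-100 (2.5%) lysis. Washed human red cells (20% v/v) had been exposed to each peptide at 100 μg/mL for 1 h at 37° C.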

Escherichia coli 926415 = settings: 926415
[2] = tested on: Acinetobacter baumannii 872842; settings: 872842
[3] = tested on: Escherichia coli ATCC 25922; settings: ATCC 25922
Outline: (§1)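 Using the CLSI reference method, each strain at approx. 10^6 CFU/mL was exposed to serially diluted peptide in MH-II broth with 0.002% P-80. After 18-20 h at 35° C, the lowest concentration showing no visible growth gave the MIC.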

[4] = tested on: Klebsiella pneumoniae 968733; settings: 968733
[5] = tested on: Klebsiella pneumoniae SSI #3010; settings: SSI #3010
Outline: as §1

[6] = tested on: Acinetobacter baumannii DSM 30008; settings: DSM 30008
Outline: as §1

[7] = tested on: Pseudomonas aeruginosa ATCC 27853; settings: ATCC 27853
Outline: as §1

Compound	Hemolysis at 100 μg/mL ([1]; 100 μg/mL) [%]	Escherichia coli 926415 MIC (Escherichia coli 926415) [µg/mL]	Acinetobacter baumannii 872842 MIC [2] [µg/mL]	Escherichia coli ATCC 25922 MIC [3] [µg/mL]	Klebsiella pneumoniae 968733 MIC [4] [µg/mL]	Klebsiella pneumoniae SSI #3010 MIC [5] [µg/mL]	Acinetobacter baumannii DSM 30008 MIC [6] [µg/mL]	Pseudomonas aeruginosa ATCC 27853 MIC [7] [µg/mL]	Hemolysis at 100 μg/mL [1]; 100 [%]
CCCC[C@@H]1NC(=O)[C@@H]2CCCN2C(=O)[C@H]2CCCN2C(=O)[C@H](CO)NC(=O)[C@H](C)NC(=O)[C@H](C(C)(C)C)NC(=O)[C@H](CCN)NC(=O)[C@H](Cc2c[nH]c3ccccc23)NC(=O)[C@@H](NC(C)=O)CSSC[C@@H](C(N)=O)NC(=O)[C@H](CCC(=O)N[C@H](CCN)C(=O)N[C@H]2CCNC(=O)[C@H]([C@@H](C)O)NC(=O)[C@H](CCN)NC(=O)[C@H](CCN)NC(=O)[C@H](CC(C)C)NC(=O)[C@@H](Cc3ccccc3)NC(=O)[C@H](CCN)NC2=O)NC(=O)[C@H](CCN)NC(=O)[C@H](Cc2ccc(O)cc2)NC(=O)[C@H](CO)NC1=O [Ex. 194] (I: Ac-CW[Dab][Tle]AS[dP]P[Nle]SY[Dab]EC-NH2 / II: [dDab][Dab][Dab][dF]L[Dab][Dab]T; disulfide I:1-I:14; amide I:13-II:N; lactam II:2-II:C)	<1	1	2	0.25	2	0.5	0.5	2	–
CCCC[C@@H]1NC(=O)[C@@H]2CCCN2C(=O)[C@H]2CCCN2C(=O)[C@H](CO)NC(=O)[C@H](C)NC(=O)[C@H](C(C)(C)C)NC(=O)[C@H](CCN)NC(=O)[C@H](Cc2c[nH]c3ccccc23)NC(=O)[C@@H](NC(C)=O)CCNC(=O)CC[C@@H](C(=O)N[C@H](CCN)C(=O)N[C@H]2CCNC(=O)[C@H]([C@@H](C)O)NC(=O)[C@H](CCN)NC(=O)[C@H](CCN)NC(=O)[C@H](CC(C)C)NC(=O)[C@@H](CC(C)C)NC(=O)[C@H](CCN)NC2=O)NC(=O)[C@H](CCCN)NC(=O)[C@H](CCN)NC(=O)[C@H](Cc2ccc(O)cc2)NC(=O)[C@H](CO)NC1=O [Ex. 196] (Ac-[Dab]W[Dab][Tle]AS[dP]P[Nle]SY[Dab][Orn]E[dDab][Dab][Dab][dL]L[Dab][Dab]T; lactam 1-14, 16-C)	–	0.125	0.5	0.125	0.5	0.25	0.25	1	<1
CCCC[C@@H]1NC(=O)[C@@H]2CCCN2C(=O)[C@H]2CCCN2C(=O)[C@H](CO)NC(=O)[C@H](C)NC(=O)[C@H](C(C)(C)C)NC(=O)[C@H](CCN)NC(=O)[C@H](Cc2c[nH]c3ccccc23)NC(=O)[C@@H](NC(C)=O)CCNC(=O)CC[C@@H](C(=O)N[C@H](CCN)C(=O)N[C@H]2CCNC(=O)[C@H]([C@@H](C)O)NC(=O)[C@H](CCN)NC(=O)[C@H](CCN)NC(=O)[C@H](CC(C)C)NC(=O)[C@@H](Cc3ccccc3)NC(=O)[C@H](CCN)NC2=O)NC(=O)[C@H](CCCN)NC(=O)[C@H](CCN)NC(=O)[C@H](Cc2ccc(O)cc2)NC(=O)[C@H](CO)NC1=O [Ex. 197] (Ac-[Dab]W[Dab][Tle]AS[dP]P[Nle]SY[Dab][Orn]E[dDab][Dab][Dab][dF]L[Dab][Dab]T; lactam 1-14, 16-C)	–	0.25	4	0.0625	2	0.25	0.5	2	2
CCCC[C@@H]1NC(=O)[C@@H]2CCCN2C(=O)[C@H]2CCCN2C(=O)[C@H](CO)NC(=O)[C@H](C)NC(=O)[C@H](C(C)(C)C)NC(=O)[C@H](CCN)NC(=O)[C@H](Cc2c[nH]c3ccccc23)NC(=O)[C@@H](N)CCC(=O)NCC[C@@H](C(=O)N[C@H](CCN)C(=O)N[C@H]2CCNC(=O)[C@H]([C@@H](C)O)NC(=O)[C@H](CCN)NC(=O)[C@H](CCN)NC(=O)[C@H](CC(C)C)NC(=O)[C@@H](Cc3ccccc3)NC(=O)[C@H](CCN)NC2=O)NC(=O)[C@H](CCCN)NC(=O)[C@H](CCN)NC(=O)[C@H](Cc2ccc(O)cc2)NC(=O)[C@H](CO)NC1=O [Ex. 198] (H-EW[Dab][Tle]AS[dP]P[Nle]SY[Dab][Orn][Dab][dDab][Dab][Dab][dF]L[Dab][Dab]T; lactam 1-14, 16-C)	–	0.5	1	0.0625	1	0.125	0.25	0.5	1
CCCC[C@@H]1NC(=O)[C@@H]2CCCN2C(=O)[C@H]2CCCN2C(=O)[C@H](CO)NC(=O)[C@H](CO)NC(=O)[C@H](C(C)(C)C)NC(=O)[C@H](CCN)NC(=O)[C@H](Cc2c[nH]c3ccccc23)NC(=O)[C@@H](N)CSSC[C@@H](C(=O)N[C@@H](C)C(=O)N[C@H](CCN)C(=O)N[C@H]2CCNC(=O)[C@H]([C@@H](C)O)NC(=O)[C@H](CCN)NC(=O)[C@H](CCN)NC(=O)[C@H](CC(C)C)NC(=O)[C@@H](Cc3ccccc3)NC(=O)[C@H](CCN)NC2=O)NC(=O)[C@H](CCCN)NC(=O)[C@H](CCN)NC(=O)[C@H](Cc2ccc(O)cc2)NC(=O)[C@H](CO)NC1=O [Ex. 199] (H-CW[Dab][Tle]SS[dP]P[Nle]SY[Dab][Orn]CA[dDab][Dab][Dab][dF]L[Dab][Dab]T; disulfide 1-14; lactam 17-C)	<1	0.5	0.5	0.25	4	0.5	2	2	–
CCCC[C@@H]1NC(=O)[C@@H]2CCCN2C(=O)[C@H]2CCCN2C(=O)[C@H](CO)NC(=O)[C@H](CO)NC(=O)[C@H](C(C)(C)C)NC(=O)[C@H](CCN)NC(=O)[C@H](Cc2c[nH]c3ccccc23)NC(=O)[C@@H](N)CSSC[C@@H](C(=O)N[C@H](CCCC)C(=O)N[C@H](CCN)C(=O)N[C@H]2CCNC(=O)[C@H]([C@@H](C)O)NC(=O)[C@H](CCN)NC(=O)[C@H](CCN)NC(=O)[C@H](CC(C)C)NC(=O)[C@@H](Cc3ccccc3)NC(=O)[C@H](CCN)NC2=O)NC(=O)[C@H](CCCN)NC(=O)[C@H](CCN)NC(=O)[C@H](Cc2ccc(O)cc2)NC(=O)[C@H](CO)NC1=O [Ex. 200] (H-CW[Dab][Tle]SS[dP]P[Nle]SY[Dab][Orn]C[dNle][dDab][Dab][Dab][dF]L[Dab][Dab]T; disulfide 1-14; lactam 17-C)	<1	0.5	1	0.125	1	0.25	0.5	2	–
